pIC50: −log10 of the molar value.
What was measured:
Format in all cases: biochemical
[1] = target: T1, KDM7 (PHF8) (Homo sapiens, UniProt Q9UPP1); assay: Histone lysine demethylase AlphaLISA assay, KDM7; conditions: read-out: PHF8 HDME Inhibition IC50
T1 construct: KDM7 (PHF8); BRIC; 1-1322; Bac
Procedure, shortened: (§1)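 Enzyme 10 min pre-incubation; + compound (3% DMSO soln) 10 min; + biotin-H3 methyl-Lys peptide, 25 μM L-Asc, 10 μM α-KG, RT. Read: AlphaLISA acceptor beads, then streptavidin donor beads, RT, dark.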

[2] = target: T2, KDM6B (JMJD3) (Homo sapiens, UniProt O15054); assay: Histone lysine demethylase AlphaLISA assay, KDM6B; conditions: read-out: KDM6B HDME Inhibition IC50
T2 construct: 1043-end; purchased BPS; host or cells: Bac (baculovirus system)
Procedure, shortened: as §1

[3] = target: T3, KDM5B (PLU-1) (Homo sapiens, UniProt Q9UGL1); assay: Histone lysine demethylase AlphaLISA assay, KDM5B; conditions: read-out: KDM5B HDME Inhibition IC50
T3 sequence (Q9UGL1 1-809): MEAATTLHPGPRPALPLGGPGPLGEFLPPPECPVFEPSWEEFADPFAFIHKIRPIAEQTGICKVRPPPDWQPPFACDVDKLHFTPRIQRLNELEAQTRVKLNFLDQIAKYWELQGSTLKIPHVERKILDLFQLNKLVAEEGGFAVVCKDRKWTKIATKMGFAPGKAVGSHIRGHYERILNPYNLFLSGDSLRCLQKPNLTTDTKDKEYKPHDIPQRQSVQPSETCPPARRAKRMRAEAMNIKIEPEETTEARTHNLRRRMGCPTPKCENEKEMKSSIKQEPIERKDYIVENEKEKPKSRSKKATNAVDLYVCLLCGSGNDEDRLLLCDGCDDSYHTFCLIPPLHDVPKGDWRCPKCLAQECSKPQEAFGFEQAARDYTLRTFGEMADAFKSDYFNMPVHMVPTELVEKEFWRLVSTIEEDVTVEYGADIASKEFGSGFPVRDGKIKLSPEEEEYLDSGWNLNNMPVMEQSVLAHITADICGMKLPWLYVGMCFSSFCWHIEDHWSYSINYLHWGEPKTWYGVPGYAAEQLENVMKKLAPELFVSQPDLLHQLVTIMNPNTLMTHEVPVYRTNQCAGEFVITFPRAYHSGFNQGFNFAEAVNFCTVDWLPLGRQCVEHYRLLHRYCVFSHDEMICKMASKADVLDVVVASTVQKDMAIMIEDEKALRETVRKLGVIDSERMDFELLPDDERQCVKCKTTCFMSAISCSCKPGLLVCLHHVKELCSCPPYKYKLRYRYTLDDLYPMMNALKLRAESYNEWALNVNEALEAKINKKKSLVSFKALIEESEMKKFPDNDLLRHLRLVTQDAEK
Procedure, shortened: as §1

[4] = target: T4, KDM3A (JMJD1A) (Homo sapiens, UniProt Q9Y4C1); assay: Histone lysine demethylase AlphaLISA assay, KDM3A; conditions: read-out: KDM3 A HDME Inhibition IC50
T4 construct: 2-end; purchased BPS Bioscience, US; host or cells: Bac (baculovirus system)
T4 sequence (Q9Y4C1 2-1321 limits assumed): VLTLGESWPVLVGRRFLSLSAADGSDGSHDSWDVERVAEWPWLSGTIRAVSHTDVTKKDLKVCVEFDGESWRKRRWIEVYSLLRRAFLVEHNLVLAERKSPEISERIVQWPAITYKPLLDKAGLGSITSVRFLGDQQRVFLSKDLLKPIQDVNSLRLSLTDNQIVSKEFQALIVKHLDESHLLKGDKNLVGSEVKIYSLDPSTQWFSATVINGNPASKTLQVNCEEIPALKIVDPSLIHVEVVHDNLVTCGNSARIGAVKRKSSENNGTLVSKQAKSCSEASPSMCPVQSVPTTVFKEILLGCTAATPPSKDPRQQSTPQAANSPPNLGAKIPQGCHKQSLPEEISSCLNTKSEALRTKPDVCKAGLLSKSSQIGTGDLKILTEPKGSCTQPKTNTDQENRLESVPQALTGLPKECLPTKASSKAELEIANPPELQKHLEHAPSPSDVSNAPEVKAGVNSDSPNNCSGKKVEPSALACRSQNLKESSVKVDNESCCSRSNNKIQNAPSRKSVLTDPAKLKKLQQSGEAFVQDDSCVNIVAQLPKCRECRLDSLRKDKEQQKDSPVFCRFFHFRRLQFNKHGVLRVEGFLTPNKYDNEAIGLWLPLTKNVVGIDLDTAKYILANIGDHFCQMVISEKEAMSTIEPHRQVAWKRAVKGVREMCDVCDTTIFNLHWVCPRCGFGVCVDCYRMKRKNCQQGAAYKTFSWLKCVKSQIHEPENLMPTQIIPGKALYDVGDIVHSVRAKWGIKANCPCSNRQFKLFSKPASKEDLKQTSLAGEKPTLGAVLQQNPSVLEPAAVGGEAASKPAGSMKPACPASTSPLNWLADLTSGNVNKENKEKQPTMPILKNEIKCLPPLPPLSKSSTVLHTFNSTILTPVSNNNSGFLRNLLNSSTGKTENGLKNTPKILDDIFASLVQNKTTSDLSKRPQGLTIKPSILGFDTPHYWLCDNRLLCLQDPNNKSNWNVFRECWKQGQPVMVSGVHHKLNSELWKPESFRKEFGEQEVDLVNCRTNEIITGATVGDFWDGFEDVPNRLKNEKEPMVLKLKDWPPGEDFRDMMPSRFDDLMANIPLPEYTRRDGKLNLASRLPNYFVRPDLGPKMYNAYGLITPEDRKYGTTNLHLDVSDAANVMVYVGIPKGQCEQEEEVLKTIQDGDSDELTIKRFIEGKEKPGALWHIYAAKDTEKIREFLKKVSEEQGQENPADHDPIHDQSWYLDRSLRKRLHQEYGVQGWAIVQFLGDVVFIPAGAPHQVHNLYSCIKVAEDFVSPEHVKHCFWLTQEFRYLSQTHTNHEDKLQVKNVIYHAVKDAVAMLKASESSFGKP
Procedure, shortened: as §1

T1 sequence (Q9UPP1 37-440 limits assumed): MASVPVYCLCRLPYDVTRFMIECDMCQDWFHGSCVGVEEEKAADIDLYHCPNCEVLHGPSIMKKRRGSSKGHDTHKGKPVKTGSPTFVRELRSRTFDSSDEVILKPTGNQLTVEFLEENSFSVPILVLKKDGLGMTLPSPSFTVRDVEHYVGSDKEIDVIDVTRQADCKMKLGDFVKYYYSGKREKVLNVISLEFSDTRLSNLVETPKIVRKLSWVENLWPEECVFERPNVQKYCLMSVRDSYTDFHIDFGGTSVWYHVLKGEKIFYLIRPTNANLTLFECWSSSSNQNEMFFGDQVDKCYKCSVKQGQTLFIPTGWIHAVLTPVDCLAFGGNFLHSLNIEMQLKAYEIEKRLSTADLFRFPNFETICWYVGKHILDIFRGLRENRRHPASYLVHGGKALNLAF
T2 sequence (O15054 1043-1682 isoform O15054-1 limits assumed): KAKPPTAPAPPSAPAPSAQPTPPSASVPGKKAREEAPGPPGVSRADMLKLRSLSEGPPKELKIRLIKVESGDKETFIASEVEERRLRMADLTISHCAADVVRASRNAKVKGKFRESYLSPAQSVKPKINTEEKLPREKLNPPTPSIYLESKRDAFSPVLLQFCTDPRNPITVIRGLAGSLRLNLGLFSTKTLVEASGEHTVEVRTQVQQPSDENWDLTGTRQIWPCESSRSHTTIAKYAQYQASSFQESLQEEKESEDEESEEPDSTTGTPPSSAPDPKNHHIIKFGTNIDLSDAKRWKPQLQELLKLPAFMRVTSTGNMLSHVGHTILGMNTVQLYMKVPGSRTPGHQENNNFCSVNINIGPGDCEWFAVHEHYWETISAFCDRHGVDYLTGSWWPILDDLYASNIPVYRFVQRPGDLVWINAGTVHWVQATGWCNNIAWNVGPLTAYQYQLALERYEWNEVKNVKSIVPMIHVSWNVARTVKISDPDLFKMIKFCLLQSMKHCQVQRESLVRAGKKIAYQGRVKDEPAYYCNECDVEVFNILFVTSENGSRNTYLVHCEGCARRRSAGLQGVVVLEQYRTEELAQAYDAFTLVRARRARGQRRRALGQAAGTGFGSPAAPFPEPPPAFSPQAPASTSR

Structure (SMILES) | pIC50 [1] | pIC50 [2] | pIC50 [3] | pIC50 [4]
CN(C)CCCCNCc1cc(CN)ccn1 [Compound 2, [2-({[4-(dimethylamino)butyl]-amino}methyl)pyridin-4-yl]methanamine] | < 5.60 | < 5.60 | < 5.60 | < 5.60
CN(C)CCNCc1ccnc(CNCCCN(C)Cc2ccccc2)c1 [Compound 18, benzyl[3-({[4-({[2-(dimethylamino)ethyl]-amino}methyl)pyridin-2-yl]methyl}-amino)propyl]-methylamine] | < 5.60 | < 5.60 | 5.60 to 6.60 | < 5.60
COCCNCc1ccnc(CNCCCN(C)Cc2ccccc2)c1 [Compound 19, benzyl(3-{[(4-{[(2-methoxyethyl)amino]-methyl}pyridin-2-yl)methyl]amino}-propyl)methylamine] | < 5.60 | < 5.60 | 5.60 to 6.60 | < 5.60
COc1ccccc1CN1CCC(NC(=O)CNCc2cc(CNC3CC3)ccn2)CC1 [Compound 20, 2-[({4-[(cyclopropylamino)-methyl]pyridin-2-yl}methyl)amino]-N-{1-[(2-methoxyphenyl)methyl]-piperidin-4-yl}acetamide] | > 6.60 | < 5.60 | > 6.60 | < 5.60
CCN(CCN(C)C)C(=O)CN(Cc1cc(CNC(=O)C(F)(F)F)ccn1)C(=O)C(F)(F)F [Compound 26, N-[(2-{[N-({[2-(dimethylamino)ethyl]-(ethyl)carbamoyl}-methyl)-2,2,2-trifluoroacetamido]-methyl}pyridin-4-yl)methyl]-2,2,2-trifIuoroacetamide] |  |  | < 5.60 | 
COC(=O)CNCc1cc(/C=N/C2CC2)ccn1 [Compound 59, methyl 2-[({4-[N-cyclopropyl-carboximidoyl]pyridin-2-yl}methyl)amino]-acetate] | 5.60 to 6.60 | < 5.60 | > 6.60 | < 5.60
CCN(CC)CCCCNCc1cc(C2NCCCN2C)ccn1 (centres unmarked) [Compound 68, [4-(diethylamino)butyl]({[4-(1-methyl-1,3-diazinan-2-yl)pyridin-2-yl]methyl})amine] |  |  | > 6.60 | 
O=Cc1ccnc(CNCCCCN(Cc2ccccc2)C2CC2)c1 [Compound 109, 2-[({4-[benzyl-(cyclopropyl)amino]-butyl}amino)methyl]-pyridine-4-carbaldehyde] | < 5.60 |  | > 6.60 | < 5.60
O=Cc1ccnc(CNCC(=O)NC2CCN(Cc3ccccc3)C2)c1 (centres unmarked) [Compound 113, N-(1-benzylpyrrolidin-3-yl)-2-{[(4-formylpyridin-2-yl)methyl]amino}-acetamide] | < 5.60 | < 5.60 | > 6.60 | < 5.60

— US9650339B2, “Inhibitors of histone demethylases” (Gilead Sciences, Inc., priority 2013, dated 2017)
